US20130274705A1, “FEEDBACK-BASED DIURETIC OR NATRIURETIC MOLECULE ADMINISTRATION” (MEDTRONIC, INC., priority 2012, published 2013)

How the values were obtained:
[1] = tested on: anesthetized, mechanically ventilated male dog; assay: NICOM study: cardiac data in an anesthetized, mechanically ventilated dog; type: in vivo; conditions: measured by NICOM monitor
Description: A noninvasive cardiac output monitoring (NICOM) monitor was utilized to measure cardiac data from an anesthetized, mechanically ventilated, 54 lb, 42 inch (nose to base of tail) male dog. FIGS. 20-24 depict the cardiac data measured by the NICOM monitor.
The gap in data at 11:20 indicates electrocautery interference when the chest of the dog was opened. FIG. 21 depicts the data in response to sequential fluid boluses. An approximate 20% increase in CO was detected reflecting changes in both SV and HR. […] FIG. 23 depicts the cardiodepressant effect of the ultra-short beta-blocker esmolol given after dobutamine and recalibration. […] FIG. 24 depicts the response to increasing blood pressure with phenylephrine followed by decreasing blood pressure with sodium nitroprusside (SNP). Prior to this intervention, the dog chest had been opened and commercially available flow monitors had been implanted on the pulmonary artery (PA). Baseline PA flow data, which was measured by the implantable monitors, was 2.7 L/min. The PA flow data measured by the NICOM monitor was 2.812 L/min.

[2] = tested on: canine model high-rate paced (HRP) to simulate HF; assay: Pharmacodynamic study of VD by continuous subcutaneous infusion in high-rate paced canine heart failure model; type: in vivo; conditions: SQ infusion 100 ng/kg·min
Experimental: FIGS. 16 and 17 show the mean right atrial pressure and the mean pulmonary capillary wedge pressure, respectively, for control and experimental groups of a canine model high-rate paced (HRP). A pharmaceutical formulation of VD was prepared in a Tris buffer. 16.0 g glycerol, 6.05 g tris-(hydroxymethyl)-aminomethane (“Tris”), 2.50 g meta cresol were mixed in a 1.00 L volumetric flask. Approximately 900 mL nanopure water was added to the volumetric flask and the mixture was magnetically stirred to reach complete dissolution. 4 normal hydrochloric acid was used to adjust pH to 7.3 at 25° C. Then, the flask was filled to 1 L mark with nanopure water. The pH was rechecked and verified to be 7.3 at 25° C. The pH 7.3 Tris buffer was stored at 2-8° C. until use.
Lyophilized VD peptide (Bachem) was weighted into a glass vial and dissolved into a known volume of the Tris buffer to a concentration between 1 mg/mL and 10 mg/mL. The VD peptide was dissolved by gentle mixing and the solution was allowed to rest for between 20 and 30 minutes. The pH of the solution was checked and adjusted to 7.3 with 0.1 N sodium hydroxide. The solution was filtered through a 0.22 micron sterile filter into a sterile glass vial and stored at 2 to 8° C. until use.
The pharmacodynamic effects of VD delivered by subcutaneous infusion were investigated in a canine model high-rate paced (HRP) to a heart rate of 240 bpm (ventricular pacing) over a period of 10 days to simulate HF. The canines were divided into a control group and an experimental group. The control group received a continuous subcutaneous infusion of the Tris buffer without VD over the course of the 10 day period. The experimental group received continuous subcutaneous infusion of VD dissolved in Tris buffer at a dosing rate of 100 ng/kg·min based upon the body weight of individual canines.
Seven days prior to the beginning of HRP (Day −7), all dogs were instrumented for ventricular pacing with an IPG (implantable pulse generator) including an RA (right atrium) and RV (right ventricle) lead, and a DSI ([…]) device in the femoral artery for arterial blood pressure monitoring. Glomerular filtration rate (GFR) was measured by iohexol clearance on the day before the beginning of HRP (Day −1). On Day 0, high-rate pacing was initiated at a rate of 240 BPM (beats per minute) and maintained continuously over the course of a 10 day period (Days 0-10). After HRP was started on Day 0, urine, blood, and hemodynamic data was collected from conscious animals to serve as a baseline. […]

Dahl/SS rats = assay: Pharmacodynamic study of VD in Dahl/SS rats on 4% salt diet (blood pressure); type: in vivo, rat; conditions: for blood pressure compared with 4% vehicle control group at week 3: week 3, p-value<0.05
Experimental: The pharmacodynamic effects of VD were investigated in a rat model. Forty male Dahl/SS rats were shipped to the animal facilities at PhysioGenix, Inc. (Milwaukee, Wis.). The rats were maintained on a low-salt diet and allowed to acclimate. After acclimation, animals had baseline parameters collected while on the low-salt diet. Baseline tail-cuff blood pressures and echocardiograms were measured. Baseline urine was collected for analysis of protein and albumin. Animals were then randomly assigned to one of 4 groups (10 animals per group):
1. Vehicle Control; low-salt diet, n=10 2. Vehicle Control; 4% salt diet, n=10 3. Vessel dilator, 100 ng/kg/min, 4% salt diet, n=10 4. Vessel dilator, 300 ng/kg/min, 4% salt diet, n=10
Lyophilized VD peptide (Bachem) was reconstituted in a Tris buffer having the same composition as the Tris buffer used in Example 7. The vehicle control groups were infused with a citrate-mannitol-saline buffer (0.66 mg/mL citric acid, 6.43 mg/mL sodium citrate, 40 mg/mL mannitol, 9 mg/mL NaCl). The animals were on a Teklad 7034 (low-salt) diet or Dyets AIN-76A 4% salt diet, as indicated, throughout a 6 week course of the study and had free access to water.
Alzet® minipumps (Durect, Corp.) were surgically implanted on Days 1, 15, and 29 of the study to maintain continuous vehicle or drug dispensing at the desired dose for a total period of 6 weeks. Urine was collected at baseline, 2, 4 and 6 weeks after the initiation of the treatment to assess proteinuria and albuminuria. After six weeks of treatment, the animals were then euthanized.

CC(CCc1ccc(O)cc1)NCCc1ccc(O)c(O)c1 (centres unmarked) [dobutamine]
effect on cardiac output (CO) [1]: marked increase in CO

COC(=O)CCc1ccc(OCC(O)CNC(C)C)cc1 (centres unmarked) [esmolol]
effect on cardiac output (CO) [1]: marked decline in CO

CNC[C@H](O)c1cccc(O)c1 [Phenylephrine, phenylephrine]
effect on cardiac output (CO) [1]: reduced CO
effect on heart rate (HR) [1]: reflex slowing of the HR

vessel dilator (EVVPPQVLSEPNEEAGAALSPLPEVPPWTGEVSPAQR; Vessel dilator; UniProt P01160 56-92, looked up) [VD, Natriuretic peptide of the ANP hormones; lyophilized VD peptide (Bachem) dissolved in Tris buffer]
increase in right atrial pressure compared with control group ([2]; Day 10, p-value<0.05): significantly less than for the control group
change in mean right atrial pressure from Day 0 to Day 10 ([2]; HRP 240 bpm, 10 days): increased slightly
difference in pulmonary capillary wedge pressure between control and experimental group on Day 10 ([2]; alpha 0.05, two-way repeated measures ANOVA): does not appear to be statistically significant
extent of increase in pulmonary capillary wedge pressure from Day 0 to Day 10 ([2]; versus control group): smaller than that observed in the control group
blood pressure compared with vehicle control group on 4% salt diet (Dahl/SS rats; high-dose VD 300 ng/kg/min SQ infusion): attenuated blood pressure
blood pressure compared with 4% vehicle control group at week 3 (Dahl/SS rats; high-dose VD 300 ng/kg/min): statistically significant decrease in blood pressure
decrease in blood pressure compared with 4% vehicle control group at week 5 (Dahl/SS rats; high-dose VD 300 ng/kg/min): not as statistically significant
blood pressure compared with vehicle control group on 4% salt diet (Dahl/SS rats; low-dose VD 100 ng/kg/min SQ infusion): attenuated blood pressure
blood pressure compared with 4% vehicle control group at week 3 (Dahl/SS rats; low-dose VD 100 ng/kg/min): statistically significant decrease in blood pressure
decrease in blood pressure compared with 4% vehicle control group at week 5 (Dahl/SS rats; low-dose VD 100 ng/kg/min): not as statistically significant
